From patent US20230141603A1, “BENZODIAZEPINE DERIVATIVES AS GABA A GAMMA1 PAM” (Hoffmann-La Roche Inc., priority 2021, published 2023)

biological target: T1, h-GABAA α2β2γ1 (Homo sapiens, UniProt P47869+Q8N1C3); experiment: Radioligand binding assay, [3H]RO7239181 competition, HEK293F membranes; parameters: signal peptide of human GABAA α5 subunit (Met1 to Ser31), replacing the α2 signal peptide (N); expressed in transfected cells; host or cells: HEK293F cells (ThermoFisher R79007), membranes
T1 sequence (P47869 29-451): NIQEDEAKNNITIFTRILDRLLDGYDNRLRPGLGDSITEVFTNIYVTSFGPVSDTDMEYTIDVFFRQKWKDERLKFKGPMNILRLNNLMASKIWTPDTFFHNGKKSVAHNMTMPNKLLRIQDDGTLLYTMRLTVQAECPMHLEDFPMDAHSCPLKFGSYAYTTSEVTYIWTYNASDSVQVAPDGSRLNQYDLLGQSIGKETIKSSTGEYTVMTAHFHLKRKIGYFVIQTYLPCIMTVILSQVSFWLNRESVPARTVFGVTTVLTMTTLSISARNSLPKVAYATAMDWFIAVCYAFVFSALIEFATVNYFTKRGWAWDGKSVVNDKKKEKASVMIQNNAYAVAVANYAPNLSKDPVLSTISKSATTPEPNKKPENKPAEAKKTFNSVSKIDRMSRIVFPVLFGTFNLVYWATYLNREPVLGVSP
T1 sequence (P47870 25-512 partner limits assumed): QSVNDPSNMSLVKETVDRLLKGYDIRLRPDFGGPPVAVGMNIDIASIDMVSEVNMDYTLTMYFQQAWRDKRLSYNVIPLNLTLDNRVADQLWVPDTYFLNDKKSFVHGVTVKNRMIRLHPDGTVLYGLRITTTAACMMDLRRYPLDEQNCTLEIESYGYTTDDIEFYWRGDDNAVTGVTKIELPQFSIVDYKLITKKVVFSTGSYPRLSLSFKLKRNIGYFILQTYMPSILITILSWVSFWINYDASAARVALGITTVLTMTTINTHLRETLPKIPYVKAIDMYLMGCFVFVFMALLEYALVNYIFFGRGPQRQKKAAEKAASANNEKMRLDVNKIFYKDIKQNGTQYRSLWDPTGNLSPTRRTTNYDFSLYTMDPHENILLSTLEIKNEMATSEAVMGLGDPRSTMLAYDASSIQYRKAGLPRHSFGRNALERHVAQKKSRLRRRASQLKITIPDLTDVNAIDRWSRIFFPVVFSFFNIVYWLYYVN
T1 sequence (Q8N1C3 36-465): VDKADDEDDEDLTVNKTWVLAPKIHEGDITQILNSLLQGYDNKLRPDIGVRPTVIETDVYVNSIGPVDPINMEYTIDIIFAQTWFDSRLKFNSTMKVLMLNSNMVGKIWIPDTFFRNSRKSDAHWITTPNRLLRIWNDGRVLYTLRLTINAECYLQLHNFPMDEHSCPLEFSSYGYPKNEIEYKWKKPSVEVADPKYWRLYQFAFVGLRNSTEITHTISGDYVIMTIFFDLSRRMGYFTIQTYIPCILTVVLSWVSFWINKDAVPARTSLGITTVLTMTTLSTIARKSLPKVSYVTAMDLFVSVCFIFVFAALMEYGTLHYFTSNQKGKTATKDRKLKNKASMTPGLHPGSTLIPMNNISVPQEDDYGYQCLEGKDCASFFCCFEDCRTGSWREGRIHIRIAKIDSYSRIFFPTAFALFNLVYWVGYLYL
Protocol: The affinity of compounds at GABAA γ1 subunit-containing receptors was measured by competition for [^3H]RO7239181 (67.3 Ci/mmol; Roche) binding to membranes from HEK293F cells (ThermoFisher R79007) expressing human (transiently transfected) receptors of composition […], α2β2γ1, α1β2γ1.
Harvested pellets from HEK293F cells expressing the different GABAA receptor subtypes were resuspended in Mannitol Buffer pH 7.2-7.4 (Mannitol 0.29M, Triethylamine 10 mM, Acetic acid 10 mM, EDTA 1 mM plus protease inhibitors (20 tablets Complete, Roche Diagnostics Cat. No. 05 056 489 001 per liter)), washed two times and then resuspended at 1:10 to 1:15 dilution in the same buffer. Cell disruption was performed by stirring the suspension in a Parr vessel #4637 at 435 psi for 15 minutes, and then the suspensions were centrifuged at 1000×g for 15 minutes at 4° C. (Beckman Avanti J-HC; rotor JS-4.2). The supernatant (S1) was transferred in a 21 Schott flask and the pellet (P1) was resuspended with Mannitol Buffer up to 175 ml. The resuspended pellet was transferred into a 250 ml Corning centrifugal beaker and centrifuged at 1500×g for 10 minutes at 4° C. (Beckman Avanti J-HC; rotor JS-4.2). The supernatant (S1) was then transferred in the 21 Schott flask and the pellet was discarded. The supernatants (S1) were centrifuged in 500 ml Beckman polypropylene centrifugal beaker at 15′000×g for 30 minutes at 4° C. (Beckman Avanti J-20 XP; rotor JLA-10.500). The pellet (P2) was resuspended with Mannitol Buffer 1:1 and frozen at −80° C. The supernatant (S2) was centrifuged in 100 ml Beckman polypropylene centrifugal tubes at 48000×g for 50 minutes at 4° C. (Beckman Avanti J-20 XP; rotor JA-18). The supernatant (S3) was discarded and the pellet (P3) was resuspended with 1:1 Mannitol Buffer. The P2 and P3 protein concentration was determined with the BIORAD Standard assay method with bovine serum albumin as standard and measured on the NANO-Drop 1000. The membrane suspension was aliquots (500 μl per tube) and stored at −80° C. until required. Membrane homogenates were resuspended and polytronised (Polytron PT1200E Kinematica AG) in Potassium Phosphate 10 mM, KCl 100 mM binding buffer at pH 7.4 to a final assay concentration determined with a previous experiment.
Assays were incubated to equilibrium for 1 hour at 4° C. and then, membranes were filtered onto unifilter (96-well white microplate with bonded GF/C filters preincubated 20-50 minutes in 0.3% Polyethylenimine) with a Filtermate 196 harvester (Packard BioScience) and washed 4 times with cold Potassium Phosphate 10 mM pH 7.4, KCl 100 mM binding buffer. After drying, filter-retained radioactivity was detected by liquid scintillation counting. Ki values were calculated using Excel-Fit (Microsoft) and are the means of two determinations.

SMILES | Ki
Cc1nnc2n1-c1ccc(Br)c(Cl)c1C(c1ncccc1F)=NC2 [Example 24, 8-bromo-7-chloro-6-(3-fluoro-2-pyridyl)-1-methyl-4H-[1,2,4]triazolo[4,3-a][1,4]benzodiazepine] | 0.0243 µM
Cc1nnc2n1-c1ccc(C(F)F)c(Cl)c1C(c1c(F)cccc1F)=NC2 [Example 25, 7-chloro-8-(difluoromethyl)-6-(2,6-difluorophenyl)-1-methyl-4H-[1,2,4]triazolo[4,3-a][1,4]benzodiazepine] | 0.0492 µM
O=c1[nH]nc2n1-c1ccc(Br)c(Cl)c1C(c1ccccc1F)=NC2 [Example 26, 8-bromo-7-chloro-6-(2-fluorophenyl)-2,4-dihydro-[1,2,4]triazolo[4,3-a][1,4]benzodiazepin-1-one] | 0.0316 µM
Fc1ccccc1C1=NCc2nnc(-c3cccnn3)n2-c2ccc(C(F)(F)F)c(Cl)c21 [Example 27, 7-chloro-6-(2-fluorophenyl)-1-pyridazin-3-yl-8-(trifluoromethyl)-4H-[1,2,4]triazolo[4,3-a][1,4]benzodiazepine] | 0.0845 µM
Cn1cc(-c2nnc3n2-c2ccc(Cl)c(Cl)c2C(c2c(F)cccc2F)=NC3)cn1 [Example 28, 7,8-dichloro-6-(2,6-difluorophenyl)-1-(1-methylpyrazol-4-yl)-4H-[1,2,4]triazolo[4,3-a][1,4]benzodiazepine] | 0.0094 µM
Fc1cccnc1C1=NCc2nncn2-c2ccc(Br)c(Cl)c21 [Example 29, 8-bromo-7-chloro-6-(3-fluoro-2-pyridyl)-4H-[1,2,4]triazolo[4,3-a][1,4]benzodiazepine] | 0.0474 µM
OCc1nnc2n1-c1ccc(Br)c(Cl)c1C(c1c(F)cccc1F)=NC2 [Example 33, [8-bromo-7-chloro-6-(2,6-difluorophenyl)-4H-[1,2,4]triazolo[4,3-a][1,4]benzodiazepin-1-yl]methanol] | 0.0127 µM
Fc1cccc(F)c1C1=NCc2nncn2-c2ccc(I)c(Cl)c21 [Example 34, 7-chloro-6-(2,6-difluorophenyl)-8-iodo-4H-[1,2,4]triazolo[4,3-a][1,4]benzodiazepine] | 0.0101 µM
Cl.NCc1nnc2n1-c1ccc(Br)c(Cl)c1C(c1c(F)cccc1F)=NC2 [Example 36, [8-bromo-7-chloro-6-(2,6-difluorophenyl)-4H-[1,2,4]triazolo[4,3-a][1,4]benzodiazepin-1-yl]methanamine hydrochloride] | 0.0085 µM
Fc1cccc(F)c1C1=NCc2nncn2-c2ccc(C(F)(F)F)c(Cl)c21 [Example 37, 7-chloro-6-(2,6-difluorophenyl)-8-(trifluoromethyl)-4H-[1,2,4]triazolo[4,3-a][1,4]benzodiazepine] | 0.0414 µM
Fc1cccc(F)c1C1=NCc2nnc(-c3cccnn3)n2-c2ccc(C(F)(F)F)c(Cl)c21 [Example 38, 7-chloro-6-(2,6-difluorophenyl)-1-pyridazin-3-yl-8-(trifluoromethyl)-4H-[1,2,4]triazolo[4,3-a][1,4]benzodiazepine] | 0.0126 µM
Fc1cccc(F)c1C1=NCc2nnc(-c3cccnn3)n2-c2ccc(I)c(Cl)c21 [Example 39, 7-chloro-6-(2,6-difluorophenyl)-8-iodo-1-pyridazin-3-yl-4H-[1,2,4]triazolo[4,3-a][1,4]benzodiazepine] | 0.0042 µM
Cc1nnc2n1-c1ccc(C(F)(F)F)c(Cl)c1C(c1c(F)cccc1F)=NC2 [Example 40, 7-chloro-6-(2,6-difluorophenyl)-1-methyl-8-(trifluoromethyl)-4H-[1,2,4]triazolo[4,3-a][1,4]benzodiazepine] | 0.0268 µM
Cc1nnc2n1-c1ccc(I)c(Cl)c1C(c1c(F)cccc1F)=NC2 [Example 41, 7-chloro-6-(2,6-difluorophenyl)-8-iodo-1-methyl-4H-[1,2,4]triazolo[4,3-a][1,4]benzodiazepine] | 0.0055 µM
Fc1cccc(F)c1C1=NCc2nnc(-c3cccnn3)n2-c2ccc(Br)c(Br)c21 [Example 42, 7,8-dibromo-6-(2,6-difluorophenyl)-1-pyridazin-3-yl-4H-[1,2,4]triazolo[4,3-a][1,4]benzodiazepine] | 0.0055 µM
Fc1cccc(F)c1C1=NCc2nnc(-c3ccncn3)n2-c2ccc(Br)c(Br)c21 [Example 43, 7,8-dibromo-6-(2,6-difluorophenyl)-1-pyrimidin-4-yl-4H-[1,2,4]triazolo[4,3-a][1,4]benzodiazepine] | 0.0058 µM
Clc1cccnc1C1=NCc2nnc(-c3ccncn3)n2-c2ccc(Br)c(Cl)c21 [Example 44, 8-bromo-7-chloro-6-(3-chloro-2-pyridyl)-1-pyrimidin-4-yl-4H-[1,2,4]triazolo[4,3-a][1,4]benzodiazepine] | 0.0096 µM
Fc1cccnc1C1=NCc2nnc(-c3cccnn3)n2-c2ccc(Br)c(Cl)c21 [Example 45, 8-bromo-7-chloro-6-(3-fluoro-2-pyridyl)-1-pyridazin-3-yl-4H-[1,2,4]triazolo[4,3-a][1,4]benzodiazepine] | 0.0158 µM
Fc1cccnc1C1=NCc2nnc(-c3ccncn3)n2-c2ccc(Br)c(Cl)c21 [Example 46, 8-bromo-7-chloro-6-(3-fluoro-2-pyridyl)-1-pyrimidin-4-yl-4H-[1,2,4]triazolo[4,3-a][1,4]benzodiazepine] | 0.0253 µM
Clc1cccnc1C1=NCc2nnc(-c3cccnn3)n2-c2ccc(Br)c(Cl)c21 [Example 47, 8-bromo-7-chloro-6-(3-chloro-2-pyridyl)-1-pyridazin-3-yl-4H-[1,2,4]triazolo[4,3-a][1,4]benzodiazepine] | 0.0159 µM
Cc1ccc2c(c1Cl)C(c1c(F)cccc1F)=NCc1nnc(-c3cccnn3)n1-2 [Example 48, 7-chloro-6-(2,6-difluorophenyl)-8-methyl-1-pyridazin-3-yl-4H-[1,2,4]triazolo[4,3-a][1,4]benzodiazepine] | 0.0083 µM
Cc1ccc2c(c1Cl)C(c1c(F)cccc1F)=NCc1nnc(-c3ccncn3)n1-2 [Example 49, 7-chloro-6-(2,6-difluorophenyl)-8-methyl-1-pyrimidin-4-yl-4H-[1,2,4]triazolo[4,3-a][1,4]benzodiazepine] | 0.0141 µM
